The source of these data is publication PMC10096175, “An In Vitro Antimicrobial, Anticancer and Antioxidant Activity of N–[(2–Arylmethylthio)phenylsulfonyl]cinnamamide Derivatives” (Molecules, 2023).

For assay [1], the system named is S. aureus ATCC 6538. Nature of the assay: Blood bacteriostatic activity test in sheep blood. Type of assay: cell-based, Staphylococcus aureus. The conditions noted are these: 24 h, 37 °C, t0 1.30 × 10^8, control t24 2.28 × 10^9. How it is done: (§1) The manifestation of the bactericidal properties of chemical compounds is low minimum bactericidal concentration (MBC) values, which allows many groups of researchers to check the killing rate over time (time killing tests). It is an important element in determining the strength and speed of action of a compound on bacteria. Such studies are usually carried out in bacterial media, without additional factors influencing the results.
(§2) This step was carried out on two types of bacteria, S. aureus ATCC 6538 (Figure 8 and Table 2) and S. epidermidis ATCC 14 990 (Figure 9 and Table 3).
(§3) The number of bacteria at the initial time (t0) was 1.30 × 10^8 CFU/mL for S. aureus and 1.70 × 10^7 CFU/mL for S. epidermidis. Live bacterial cells were assayed after 24 h of incubation at 37 °C. […] Bacterial controls without compounds grew unhindered and after 24 h (t24) were 2.28 × 10^9 for S. aureus and 5.10 × 10^8 CFU/mL for S. epidermidis. […] It can be assumed that the tested compounds were not related to any fraction of the blood. Attention should be paid to the S. epidermidis tests and the difference between the number of bacteria at t0 and after 24 h of incubation for each compound. The number of bacteria at t0 was 1.70 × 10^7 CFU/mL and after 24 h it decreased to, e.g., 9.40 × 10^6 CFU/mL for compounds 16e and 7.80 × 10^6 CFU/mL for compound 17c. It can be assumed that the tested compounds after being added to blood samples prevented bacteria from multiplying. However, under these conditions, the phagocytic cells take up the bacteria. […] This can be explained by much greater variety of mechanisms of action of S. aureus against phagocytic cells than of S. epidermidis. This can be integrated with the bacterial cell compounds, e.g., protein A, as well as enzymes that bacteria can secrete outside the cell, e.g., coagulase and staphylokinase. Additional studies should be conducted to check how the tested compounds affect the enzymes secreted by S. aureus.
(§4) The assay was performed as previously described by with a modification. Pure sheep blood was used for the research. Two strains of bacteria S. aureus ATCC 6538 and S. epidermidis ATCC 14990 were used with an inoculum density of approximately 10^8 CFU/mL at 0 time. The final concentration of the compounds was 0.5, 1, 2, 4, and 8 µg/mL, and the final volume of the assay tube was 1 mL. Bacterial survivors were determined on MH agar plates (CFU/mL) at 24 h after exposure.

The subject of assay [2] is HeLa cells. Nature of the assay: MTT assay. Format: cell-based, human. The conditions noted are these: for IC50: HeLa, MTT, 24 h treatment; for Selectivity index (SI): IC50 HEK-293 / IC50 HeLa. (Tetrazolium dyes change colour on reduction, which living cells bring about.)
Assay [3] deals with S. aureus ATCC 6538. Nature of the assay: MIC determination, reference strain (microdilution). Format: cell-based. The conditions noted are these: Staphylococcus aureus, ATCC6538; S. aureus ATCC 6538; ± SD; Co-trimoxazole as sulfamethoxazole/trimethoprim; read-out: MIC. For orientation: In broth dilution the organism is exposed to a series of concentrations in liquid medium.
Assay [4] relates to E. coli ATCC 8739. Described as above. Format: cell-based. The conditions noted are these: Escherichia coli, ATCC8739; E. coli ATCC 8739; Co-trimoxazole as sulfamethoxazole/trimethoprim; read-out: MIC.
For assay [5], the system named is S. epidermidis ATCC 14990. Described as above. Type of assay: cell-based. The conditions noted are these: Staphylococcus epidermidis, ATCC14990; S. epidermidis ATCC 14990; Co-trimoxazole as sulfamethoxazole/trimethoprim; read-out: MIC.
In assay [6] the test system is S. epidermidis ATCC 14990. The assay can be described thus: Blood bacteriostatic activity test in sheep blood. The conditions noted are these: 24 h, 37 °C, t0 1.70 × 10^7, control t24 5.10 × 10^8. Format: cell-based, Staphylococcus epidermidis. The protocol:
as §1, §2, §3, §4

Assay [7] has as its system HEK-293 cells. Nature of the assay: MTT assay, noncancerous cells. Format: cell-based. The conditions noted are these: Homo sapiens, HEK293; HEK-293; MTT, 24 h treatment; read-out: IC50.
Assay [8] relates to SKOV-3 cells. The assay can be described thus: MTT assay. Format: cell-based, human. The conditions noted are these: for IC50: Homo sapiens, SK-OV-3, SKOV-3, MTT, 24 h treatment, read-out: IC50; for Selectivity index (SI): IC50 HEK-293 / IC50 SKOV-3.
For assay [9], the system named is C. albicans ATCC 10231. The assay can be described thus: MIC determination, reference fungal strain (microdilution). Format: cell-based. The conditions noted are these: Candida albicans, ATCC10231; C. albicans ATCC 10231; read-out: MIC.
The test system of assay [10] is C. diphtheriae. Nature of the assay: MIC determination, reference strain (microdilution). Type of assay: cell-based. The conditions noted are these: Corynebacterium diphtheriae; C. diphtheriae; Co-trimoxazole as sulfamethoxazole/trimethoprim; read-out: MIC.
Assay [11] concerns B. subtilis ATCC 6633. Described as above. The conditions noted are these: Bacillus subtilis, ATCC6633; B. subtilis ATCC 6633; Co-trimoxazole as sulfamethoxazole/trimethoprim; read-out: MIC. Type of assay: cell-based.
A short description of assay [12]: DPPH assay. The conditions noted are these: DPPH radical scavenging; 40 min, room temperature. The method in brief:
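Samples in methanol/DMSO (9/1 v/v) mixed with 0.06 mM methanolic DPPH (170 µL in 300 µL final), kept 40 min at room temperature in the dark. Absorbance at 510 nm; inhibition % relative to solvent control, IC50 derived from concentration series. Three runs in triplicate (n = 9).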
(DPPH is a stable violet radical that fades when it is reduced.)

Assay [13] has as its system E. hirae ATCC 10541. The assay can be described thus: MIC determination, reference strain (microdilution). Format: cell-based. The conditions noted are these: Enterococcus hirae, ATCC10541; E. hirae ATCC 10541; Co-trimoxazole as sulfamethoxazole/trimethoprim; read-out: MIC.
Assay [14] concerns MCF-7 cells. Nature of the assay: MTT assay. Type of assay: cell-based, human. The conditions noted are these: for IC50: Homo sapiens, MCF7, MCF-7, MTT, 24 h treatment, read-out: IC50; for Selectivity index (SI): IC50 HEK-293 / IC50 MCF-7.
Setting [15] is: Homo sapiens, 24 h, read-out: IC50.

SMILES strings stand for the structures. ≈ marks a conversion by molar mass, not a printed value. Like-named read-outs stand apart in the source and are kept apart here. Some results are limits rather than exact numbers.

As to `Cc1cc(S(=O)(=O)NC(=O)/C=C/c2ccc(Cl)cc2)c(SCc2cc3c(cc2Cl)OCO3)cc1Cl` [Compound 17c, (E)–N–{4–Chloro–2–[(6–chlorobenzo[d][1,3]dioxol–5–yl)methylthio]–5–methylphenylsulfonyl}–3–(4–chlorophenyl)acrylamide], the “Number of viable cells of Staphylococcus aureus” value in assay [1] (1 µg/mL) is on record as 2.24 × 10^8 CFU/mL; in assay [1] (2 µg/mL) it was 1.09 × 10^8 CFU/mL; in assay [1] (4 µg/mL) it was 2.02 × 10^8 CFU/mL; in [1] (8 µg/mL), 9.35 × 10^7 CFU/mL. Further, the IC50 (in general, the concentration that inhibits the measured activity by half) in [2] (setting [15]) amounted to 11.2 ± 0.7 µg/mL (≈ 19.7 µM); in [7], 14.6 ± 0.58 µg/mL (≈ 25.5 µM); in [8], 12 ± 1.07 µg/mL (≈ 20.9 µM); in [14] it was 11.6 ± 0.91 µg/mL (≈ 20.4 µM). Moreover, the “Selectivity index (SI)” value in assay [2] turned out to be 1.3; in [8], 1.2; in assay [14], 1.2. Besides, the MIC – broadly, the least concentration at which growth counts as inhibited – in [3] is 1 ± 0.29 µg/mL (≈ 1.75 µM); in assay [4], greater than 125 µg/mL; in [5], 1 ± 0.29 µg/mL (≈ 1.75 µM); in assay [9], greater than 125 µg/mL; in [10], greater than 125 µg/mL; in assay [11] it was 62.5 ± 0.29 µg/mL (≈ 109 µM). Further, the MIC in assay [13] was 2 ± 0.58 µg/mL (≈ 3.5 µM). Besides, the “Number of viable cells of Staphylococcus epidermidis” value in [6] (1 µg/mL) is listed as 7.80 × 10^6 CFU/mL; in assay [6] (2 µg/mL), 4.25 × 10^6 CFU/mL; in [6] (4 µg/mL), 1.40 × 10^7 CFU/mL; in assay [6] (8 µg/mL), 5.10 × 10^6 CFU/mL. The “IC50 DPPH” value in [12] amounted to 1077.66 ± 0.42 µg/mL (≈ 1890 µM).
`COc1ccc(/C=C/C(=O)NS(=O)(=O)c2cc(C)c(Cl)cc2SCc2cccc3ccccc23)cc1F` [Compound 16e, (E)–N–{4–Chloro–5–methyl–2–[(naphthalen–1–yl)methylthio]phenylsulfonyl}–3–(3–fluoro–4–methoxyphenyl)acrylamide]: the “Number of viable cells of Staphylococcus aureus” value in assay [1] (1 µg/mL) is listed as 2.15 × 10^8 CFU/mL; in [1] (2 µg/mL) it was 1.27 × 10^8 CFU/mL; in assay [1] (4 µg/mL), 1.94 × 10^8 CFU/mL; in [1] (8 µg/mL), 2.80 × 10^8 CFU/mL. The half-inhibitory concentration (IC50) in assay [2] (setting [15]) came out at 12.3 ± 0.2 µg/mL (≈ 22.2 µM); in assay [7] it was 10 ± 0.23 µg/mL (≈ 18 µM); in [8] it was 12.2 ± 0.23 µg/mL (≈ 21.9 µM); in [14], 15.5 ± 0.82 µg/mL (≈ 27.8 µM). For the same molecule, the figures for the “Selectivity index (SI)” value in assay [2], in [8] and in assay [14] were 0.8, 0.8 and 0.6, respectively. The minimal inhibitory concentration (MIC) is 2 ± 0.58 µg/mL (≈ 3.6 µM) in [3]; greater than 125 µg/mL in assay [4]; 1 ± 0.29 µg/mL (≈ 1.8 µM) in assay [5]; greater than 125 µg/mL in assay [9]; 62.5 ± 0.29 µg/mL (≈ 112 µM) in [10]; 62.5 ± 0.29 µg/mL (≈ 112 µM) in [11]. In addition, in [13], the MIC was determined as 4 ± 0.15 µg/mL (≈ 7.19 µM). In addition, the “Number of viable cells of Staphylococcus epidermidis” value in assay [6] (1 µg/mL) was 9.40 × 10^6 CFU/mL; in assay [6] (2 µg/mL), 4.00 × 10^6 CFU/mL; in assay [6] (4 µg/mL), 3.20 × 10^6 CFU/mL; in [6] (8 µg/mL), 3.00 × 10^6 CFU/mL. In [12], the “IC50 DPPH” value is given as 539.30 ± 0.13 µg/mL (≈ 970 µM).
In the case of `Cc1cc(S(=O)(=O)NC(=O)/C=C/c2ccc(Cl)cc2)c(SCc2cccc3ccccc23)cc1Cl` [Compound 16d, (E)–N–{4–Chloro–5–methyl–2–[(naphthalen–1–yl)methylthio]phenylsulfonyl}–3–(4–chlorophenyl)acrylamide], the “Number of viable cells of Staphylococcus aureus” value in [1] (1 µg/mL) is 1.88 × 10^8 CFU/mL; in assay [1] (2 µg/mL), 1.66 × 10^8 CFU/mL; in [1] (4 µg/mL), 1.58 × 10^8 CFU/mL; in [1] (8 µg/mL) it was 1.27 × 10^8 CFU/mL. The 50% inhibitory concentration (IC50) is 9.66 ± 0.75 µg/mL (≈ 17.8 µM) in [2]; less than 10 µg/mL in [2] (setting [15]); 10.8 ± 0.4 µg/mL (≈ 19.9 µM) in assay [7]; 7.87 ± 0.03 µg/mL (≈ 14.5 µM) in assay [8]; 12.8 ± 0.29 µg/mL (≈ 23.6 µM) in assay [14]. The “Selectivity index (SI)” value in assay [2] was found to be 1.1; in assay [8] it was 1.4; in assay [14] it was 0.8. The minimal inhibitory concentration (MIC) is 1 µg/mL (≈ 1.84 µM) in assay [3]; greater than 125 µg/mL in assay [4]; 1 ± 0.29 µg/mL (≈ 1.84 µM) in [5]; greater than 125 µg/mL in [9]; greater than 125 µg/mL in assay [10]; 62.5 ± 0.29 µg/mL (≈ 115 µM) in [11]. Further, the MIC in assay [13] was 2 ± 0.58 µg/mL (≈ 3.69 µM). Further, the “Number of viable cells of Staphylococcus epidermidis” value in assay [6] (1 µg/mL) is on record as 4.00 × 10^6 CFU/mL; in [6] (2 µg/mL) it was 3.00 × 10^6 CFU/mL; in assay [6] (4 µg/mL), 2.00 × 10^6 CFU/mL; in assay [6] (8 µg/mL), 2.50 × 10^6 CFU/mL. The “IC50 DPPH” value in assay [12] stood at 348.21 ± 0.29 µg/mL (≈ 642 µM).
